Results: patent US20150307520A1, “NOVEL HETEROARYL AND HETEROCYCLE COMPOUNDS, COMPOSITIONS AND METHODS THEREOF” (HUTCHISON MEDIPHARMA LIMITED, priority 2012, published 2015)

Key:
[1] = target: p110α/p85α (Homo sapiens, UniProt P42336); assay: Transcreener KINASE Assay, kinase inhibition of p110α/p85α; format: biochemical; settings: for PI3Kα IH % @ 1 uM: 1 uM test compound
Protocol: PI3K kinases including p110α/p85α, p110δ/p85α and p110γ are purchased from Invitrogen, and p110β/p85α is from Millipore.
Primary screening data and IC50 values are measured using Transcreener™ KINASE Assay (Bellbrook, Catalog #3003-10K). […] It is a universal, homogenous, high throughput screening (HTS) technology using a far-red, competitive fluorescence polarization immunoassay based on the detection of ADP to monitor the activity of enzymes that catalyze group transfer reactions. Briefly, the Transcreener KINASE Assay is designed as a simple two-part, endpoint assay.
In the first step, the 25 ul kinase reaction is performed by preparing a reaction mixture containing 5 ul test compound (2% DMSO final concentration), 10 ul kinase, buffer (50 mM HEPES, 100 mM NaCl, 1 mM EGTA, 0.03% CHAPS, 3 mM MgCl2, and freshly supplemented 1 mM DTT), and 10 ul 30 uM PIP2/10 uM ATP. The plate is sealed and incubated for 80 min at room temperature. Next, 25 ul ADP detection mix is added per well. The plate is sealed again and incubated for 60 min at room temperature, and then measure fluorescence polarization by Tecan Infinite F500 Reader.
Data is analyzed and IC50s are generated using the add-in software for Microsoft Excel, Xlfit™ (version 2.0). IH %=(ADP amount under 2% DMSO-ADP amount under test compound)/ADP amount under 2% DMSO.

[2] = target: p110γ (Homo sapiens, UniProt P48736); assay: Transcreener KINASE Assay, kinase inhibition of p110γ; format: biochemical; settings: for PI3Kγ IH % @ 1 uM: 1 uM test compound; for IC50: read-out: PI3Kγ IC50
In short: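 ADP-detecting fluorescence polarization immunoassay run as two-step endpoint: kinase reaction for 80 min, detection for 60 min, both at room temperature. Enzymes are recombinant p110 isoforms with p85α, except p110γ. IC50s derived from fitted inhibition curves.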

[3] = target: p110β/p85α (Homo sapiens, UniProt P42338); assay: Transcreener KINASE Assay, kinase inhibition of p110β/p85α; format: biochemical; settings: for PI3Kβ IH % @ 1 uM: 1 uM test compound; for IC50: read-out: PI3Kβ IC50
Sequence of p110β/p85α (P42338 whole entry): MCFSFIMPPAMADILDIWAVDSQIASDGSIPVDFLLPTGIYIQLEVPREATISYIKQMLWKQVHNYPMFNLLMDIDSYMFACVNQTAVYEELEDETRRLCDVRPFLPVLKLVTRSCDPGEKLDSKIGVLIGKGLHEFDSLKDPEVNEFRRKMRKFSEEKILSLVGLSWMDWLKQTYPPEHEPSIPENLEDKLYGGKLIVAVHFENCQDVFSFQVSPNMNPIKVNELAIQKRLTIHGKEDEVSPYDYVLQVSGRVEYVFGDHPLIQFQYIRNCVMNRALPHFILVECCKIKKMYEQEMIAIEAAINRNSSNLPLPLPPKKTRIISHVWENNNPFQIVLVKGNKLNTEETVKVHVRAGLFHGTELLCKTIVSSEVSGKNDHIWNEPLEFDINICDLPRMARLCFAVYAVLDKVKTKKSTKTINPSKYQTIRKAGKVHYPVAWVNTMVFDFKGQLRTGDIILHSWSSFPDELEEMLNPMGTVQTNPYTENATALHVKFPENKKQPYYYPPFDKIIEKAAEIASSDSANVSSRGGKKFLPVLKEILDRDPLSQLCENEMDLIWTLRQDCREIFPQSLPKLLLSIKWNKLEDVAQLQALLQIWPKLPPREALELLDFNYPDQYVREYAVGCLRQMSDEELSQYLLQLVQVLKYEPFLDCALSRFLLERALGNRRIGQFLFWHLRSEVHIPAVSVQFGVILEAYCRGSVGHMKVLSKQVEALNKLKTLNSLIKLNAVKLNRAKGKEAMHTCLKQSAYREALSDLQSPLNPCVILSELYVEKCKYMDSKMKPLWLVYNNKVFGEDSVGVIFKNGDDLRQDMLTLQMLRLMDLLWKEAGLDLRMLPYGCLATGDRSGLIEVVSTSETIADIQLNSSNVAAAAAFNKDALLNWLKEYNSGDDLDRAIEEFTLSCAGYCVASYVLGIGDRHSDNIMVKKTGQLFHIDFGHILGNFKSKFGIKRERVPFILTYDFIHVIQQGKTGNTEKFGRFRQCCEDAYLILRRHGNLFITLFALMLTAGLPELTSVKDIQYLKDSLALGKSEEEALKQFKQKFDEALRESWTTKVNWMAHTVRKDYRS
Sequence of p110β/p85α (P27986 2-724 partner): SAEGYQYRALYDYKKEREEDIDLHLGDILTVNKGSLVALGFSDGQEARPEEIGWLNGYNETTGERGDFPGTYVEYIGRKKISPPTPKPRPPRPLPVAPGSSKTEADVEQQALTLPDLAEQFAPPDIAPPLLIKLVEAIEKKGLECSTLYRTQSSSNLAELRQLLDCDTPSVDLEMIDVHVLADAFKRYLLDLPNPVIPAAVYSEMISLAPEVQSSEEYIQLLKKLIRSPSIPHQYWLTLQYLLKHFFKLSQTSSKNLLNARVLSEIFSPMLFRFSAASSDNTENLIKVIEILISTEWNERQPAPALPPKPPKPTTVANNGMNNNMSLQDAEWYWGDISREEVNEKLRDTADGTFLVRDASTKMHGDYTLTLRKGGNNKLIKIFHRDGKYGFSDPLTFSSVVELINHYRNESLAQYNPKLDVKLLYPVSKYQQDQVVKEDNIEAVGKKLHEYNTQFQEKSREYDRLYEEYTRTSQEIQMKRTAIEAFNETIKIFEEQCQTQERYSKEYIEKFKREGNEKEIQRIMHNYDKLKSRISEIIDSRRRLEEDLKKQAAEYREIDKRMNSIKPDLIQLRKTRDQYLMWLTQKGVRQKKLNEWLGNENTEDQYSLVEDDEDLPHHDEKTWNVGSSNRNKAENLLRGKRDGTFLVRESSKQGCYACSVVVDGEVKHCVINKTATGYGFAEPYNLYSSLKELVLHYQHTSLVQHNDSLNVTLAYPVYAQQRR
In short: (§1)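 ADP formation read by far-red competitive FP immunoassay (60 min RT detection step) after an 80 min RT kinase reaction; substrate added as a 30 uM PIP2/10 uM ATP solution (not final).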

[4] = target: p110δ/p85α (Homo sapiens, UniProt O00329); assay: Transcreener KINASE Assay, kinase inhibition of p110δ/p85α; format: biochemical; settings: for PI3Kδ IH % @ 1 uM: 1 uM test compound; for IC50: read-out: PI3Kδ IC50
Sequence of p110δ/p85α (O00329 whole entry): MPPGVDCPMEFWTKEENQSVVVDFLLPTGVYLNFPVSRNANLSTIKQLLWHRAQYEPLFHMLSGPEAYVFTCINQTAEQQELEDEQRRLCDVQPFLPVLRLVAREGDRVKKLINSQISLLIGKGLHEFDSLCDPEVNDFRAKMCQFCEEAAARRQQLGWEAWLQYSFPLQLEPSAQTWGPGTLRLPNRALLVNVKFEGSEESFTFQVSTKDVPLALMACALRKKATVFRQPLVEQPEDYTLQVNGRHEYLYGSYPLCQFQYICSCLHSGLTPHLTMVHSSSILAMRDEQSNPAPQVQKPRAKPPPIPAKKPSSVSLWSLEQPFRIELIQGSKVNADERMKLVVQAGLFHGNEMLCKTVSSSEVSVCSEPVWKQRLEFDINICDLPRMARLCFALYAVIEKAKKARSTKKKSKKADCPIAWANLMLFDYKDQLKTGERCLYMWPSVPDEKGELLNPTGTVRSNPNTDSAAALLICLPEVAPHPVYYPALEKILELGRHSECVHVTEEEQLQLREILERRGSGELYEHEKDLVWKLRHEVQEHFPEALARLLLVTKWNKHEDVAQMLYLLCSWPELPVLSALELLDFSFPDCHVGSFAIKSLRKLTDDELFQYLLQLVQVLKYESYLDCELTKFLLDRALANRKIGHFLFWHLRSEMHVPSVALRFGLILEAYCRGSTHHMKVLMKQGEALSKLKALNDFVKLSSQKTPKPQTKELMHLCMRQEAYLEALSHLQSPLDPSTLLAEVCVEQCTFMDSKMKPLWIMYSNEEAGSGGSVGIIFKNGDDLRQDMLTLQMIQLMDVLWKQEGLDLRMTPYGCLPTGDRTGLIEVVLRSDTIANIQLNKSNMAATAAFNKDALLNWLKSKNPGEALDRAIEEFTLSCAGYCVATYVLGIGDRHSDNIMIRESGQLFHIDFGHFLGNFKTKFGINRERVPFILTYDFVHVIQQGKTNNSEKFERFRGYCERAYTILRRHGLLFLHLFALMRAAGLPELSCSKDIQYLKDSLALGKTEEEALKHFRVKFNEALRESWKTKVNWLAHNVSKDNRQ
Sequence of p110δ/p85α (P27986 whole entry partner): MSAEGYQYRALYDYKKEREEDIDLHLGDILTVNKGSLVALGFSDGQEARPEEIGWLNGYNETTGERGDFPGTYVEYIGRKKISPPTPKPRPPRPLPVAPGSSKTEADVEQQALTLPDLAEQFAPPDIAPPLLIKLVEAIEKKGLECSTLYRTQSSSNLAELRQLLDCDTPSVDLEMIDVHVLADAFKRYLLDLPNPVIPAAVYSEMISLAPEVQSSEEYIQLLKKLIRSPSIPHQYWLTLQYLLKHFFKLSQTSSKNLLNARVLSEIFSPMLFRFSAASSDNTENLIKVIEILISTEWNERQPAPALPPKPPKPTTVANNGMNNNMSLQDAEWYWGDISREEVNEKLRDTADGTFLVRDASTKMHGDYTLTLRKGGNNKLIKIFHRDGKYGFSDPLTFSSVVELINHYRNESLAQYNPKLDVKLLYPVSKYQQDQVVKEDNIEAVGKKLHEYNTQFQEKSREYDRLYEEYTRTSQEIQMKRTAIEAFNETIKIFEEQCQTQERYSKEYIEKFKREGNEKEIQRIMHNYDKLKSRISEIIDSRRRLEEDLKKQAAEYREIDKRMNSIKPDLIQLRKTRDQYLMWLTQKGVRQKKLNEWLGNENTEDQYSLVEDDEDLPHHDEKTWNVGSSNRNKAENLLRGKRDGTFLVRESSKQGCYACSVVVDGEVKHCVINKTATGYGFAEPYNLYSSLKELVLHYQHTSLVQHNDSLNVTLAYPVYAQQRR
In short: as §1

[5] = target: PI3Kγ (Mus musculus, UniProt Q9JHG7); assay: Acumen Assay - Raw264.7 p-AKT Assay (C5a stimulated); format: cell-based; settings: Raw264.7 macrophage cells, compound 30 min, stimulated with 10 nM C5a for 5 min, p-AKT (Ser473) readout; read-out: PI3Kγ cell-C5a Raw264.7 IC50
Protocol: Acumen Assay—Raw264.7 p-AKT Assay
Acumen® eX3 (A Multilaser Microplate Cytometer For Enhanced High Content Screening): TTP LabTech
3×10^4 Raw264.7 macrophage cells were seeded into 96-well plates with DMEM+10% heat-inactivated FBS at […], 90 ul/well, overnight. After starvation for 3 hr at 37° C. under 5% CO2, Raw264.7 cells were treated with 10 ul/well various concentrations of compound or 0.5% DMSO for 30 min, and then stimulated with 10 ul/well 10 nM C5a for 5 min.
1.) Cells were fixed 110 μL of 4% pre-warmed Paraformaldehyde (2% final), incubate for 45 min at room temperature. 2.) Remove paraformaldehyde solution. Add 100 μL of ice-cold 0.1% Triton X-100 in PBS and leave at 4° C. for 30 min. 3.) Wash once in 100 μL PBS. 4.) Incubate with 100 μL blocking buffer (1% BSA, in PBS) for 2 hours at room temperature. 5.) Wash once for 5 min with 100 ul PBS. 6.) Incubate with 40 μL 1:200 dilution of phospho AKT (Ser473) rabbit antibody in antibody dilution buffer (0.1% BSA, in PBS) overnight at 4° C. 7.) Wash for 3 times for 10 min with 100 ul PBS. 8.) Incubate for 90 min at room temperature with 50 μL of goat anti-rabbit Alex488 antibody at a 1:1,000 dilution in antibody dilution buffer (0.1% BSA, in PBS). Cover plate in foil to keep out of light. 9.) Wash for 3 times for 10 min with 100 μL PBS. 10.) Add 50 μL of 1.5 μM Propidium Iodide solution to each well to determine cell number at a 1:1,000 dilution in PBS (stock: 1.5 mM). 11.) Incubate at room temperature for 30 min. 12.) Seal the plate with a black cover-seal (supplied with plate). 13.) Load the plate into the Acumen Explorer and scan with the appropriate instrument settings.

Sequence of p110α/p85α (P42336 whole entry): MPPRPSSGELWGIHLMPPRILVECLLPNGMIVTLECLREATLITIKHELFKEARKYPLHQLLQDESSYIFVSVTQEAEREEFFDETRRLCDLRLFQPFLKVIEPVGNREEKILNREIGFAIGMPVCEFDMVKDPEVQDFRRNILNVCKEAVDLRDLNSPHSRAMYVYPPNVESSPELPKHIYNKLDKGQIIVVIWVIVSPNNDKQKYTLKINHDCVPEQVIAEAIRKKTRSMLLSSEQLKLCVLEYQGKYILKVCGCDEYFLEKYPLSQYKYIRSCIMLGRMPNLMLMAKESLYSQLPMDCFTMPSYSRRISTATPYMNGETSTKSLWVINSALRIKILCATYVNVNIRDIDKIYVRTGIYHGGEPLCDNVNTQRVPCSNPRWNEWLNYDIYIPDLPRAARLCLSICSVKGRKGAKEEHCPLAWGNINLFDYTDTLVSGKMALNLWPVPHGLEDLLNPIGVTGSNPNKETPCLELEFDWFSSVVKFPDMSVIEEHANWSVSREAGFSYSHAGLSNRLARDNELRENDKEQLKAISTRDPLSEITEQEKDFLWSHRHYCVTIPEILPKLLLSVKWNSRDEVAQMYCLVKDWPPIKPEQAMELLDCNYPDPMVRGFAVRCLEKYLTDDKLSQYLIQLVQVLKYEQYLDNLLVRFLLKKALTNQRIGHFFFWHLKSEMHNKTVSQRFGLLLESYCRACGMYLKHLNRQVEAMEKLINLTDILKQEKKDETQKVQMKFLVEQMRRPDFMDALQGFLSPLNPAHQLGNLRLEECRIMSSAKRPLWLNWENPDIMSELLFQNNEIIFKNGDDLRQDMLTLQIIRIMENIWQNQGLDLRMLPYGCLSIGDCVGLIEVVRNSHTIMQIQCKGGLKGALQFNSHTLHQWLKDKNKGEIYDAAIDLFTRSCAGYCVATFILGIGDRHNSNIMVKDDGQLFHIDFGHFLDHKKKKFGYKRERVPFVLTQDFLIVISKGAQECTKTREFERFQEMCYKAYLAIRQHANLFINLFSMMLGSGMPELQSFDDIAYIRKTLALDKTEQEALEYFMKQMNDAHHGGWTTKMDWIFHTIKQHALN
Sequence of p110α/p85α (P27986 whole entry partner): as the sequence (P27986 whole entry partner) above

| SMILES | PI3Kα IH % @ 1 uM [1] [%] | PI3Kγ IH % @ 1 uM [2] [%] | IC50 [2] [µM] | PI3Kβ IH % @ 1 uM [3] [%] | IC50 [3] [µM] | PI3Kδ IH % @ 1 uM [4] [%] | IC50 [4] [µM] | IC50 ([1]; read-out: PI3Kα IC50) [µM] | IC50 [5] [µM] |
| --- | --- | --- | --- | --- | --- | --- | --- | --- | --- |
| Cc1ccn2cc(C(C)Nc3ncnc4[nH]cc(C#N)c34)n(-c3ccccc3)c(=O)c12 (centres unmarked) [Compound 91] | 48.3 | 93.5 | 0.034 | 78.3 | 0.222 | >100 | 0.005 | – | – |
| Cc1ccn2cc(C(C)Nc3ncnc4[nH]cnc34)n(-c3ccccc3)c(=O)c12 (centres unmarked) [Compound 92] | 31.8 | 95.7 | 0.02 | 65.2 | – | >100 | 0.003 | – | – |
| Nc1ccc(-c2c[nH]c3ncnc(N4CC[C@H]4c4nn5ccc(Cl)c5c(=O)n4-c4ccccc4)c23)cn1 [Compound 101] | 47.8 | >100 | – | 81.6 | 0.138 | >100 | 0.003 | – | – |
| CC(Nc1ncnc2[nH]cnc12)c1cc2ccc(Cl)n2c(=O)n1-c1cccc(F)c1 (centres unmarked) [Compound 127] | 7.0 | >100 | 0.057 | 71.3 | 0.307 | 99.2 | 0.005 | – | – |
| CC(Nc1ncnc2[nH]cc(C#N)c12)c1cc2ccc(Cl)n2c(=O)n1-c1cccc(F)c1 (centres unmarked) [Compound 128] | 40.3 | 96.2 | 0.01 | 87.8 | 0.086 | 99.0 | 0.001 | – | – |
| C[S+]([O-])c1c[nH]c2ncnc(N3CCC[C@H]3c3nn4ccc(Cl)c4c(=O)n3-c3ccccc3)c12 (some centres unmarked) [Compound 186] | 28.4 | >100 | 0.01 | >100 | 0.284 | >100 | 0.001 | – | – |
| C[S+]([O-])c1c[nH]c2ncnc(N3CCC[C@H]3c3nn4ccc(Cl)c4c(=O)n3-c3ccccc3)c12 (some centres unmarked) [Compound 187] | 14.1 | >100 | – | 84.4 | – | 99.0 | 0.001 | – | – |
| C[S+]([O-])c1c[nH]c2ncnc(N3CCC[C@H]3c3nn4ccc(Cl)c4c(=O)n3-c3ccccc3)c12 (some centres unmarked) [Compound 188] | 14.7 | >100 | – | 68.7 | – | 98.8 | – | – | – |
| Cc1ccn2nc([C@@H]3CCCN3c3ncnc(N)c3C#N)n(-c3ccccc3)c(=O)c12 [Compound 189, (S)-4-amino-6-(2-(5-methyl-4-oxo-3-phenyl-3,4-dihydropyrrolo[2,1-f][1,2,4]triazin-2-yl)pyrrolidin-1-yl)pyrimidine-5-carbonitrile] | 54.0 | 89.2 | 0.015 | 87.0 | 0.087 | 97.5 | 0.001 | – | – |
| C[S+]([O-])c1c[nH]c2ncnc(N3CCC[C@H]3c3nn4ccc(Cl)c4c(=O)n3-c3ccccc3)c12 (some centres unmarked) [Compound 197] | 28.4 | >100 | 0.01 | >100 | 0.284 | >100 | 0.001 | – | – |
| C[S+]([O-])c1c[nH]c2ncnc(N3CCC[C@H]3c3nn4ccc(Cl)c4c(=O)n3-c3cccc(F)c3)c12 (some centres unmarked) [Compound 198] | 17.4 | >100 | 0.01 | 82.4 | 0.323 | >100 | 0.001 | – | – |
| CC(=O)c1cnc(N)nc1N1C[C@H](C)[C@H]1c1nn2ccc(Cl)c2c(=O)n1-c1ccc(F)cc1 [Compound 206] | – | >100 | 0.001 | >100 | 0.181 | 94 | 0.007 | 0.372 | – |
| N#Cc1c[nH]c2ncnc(N3C[C@@H](F)C[C@H]3c3nn4ccc(Cl)c4c(=O)n3-c3cccc(F)c3)c12 [Compound 213] | 65.2 | >100 | 0.007 | 85.9 | 0.088 | >100 | 0.001 | – | – |
| C[C@H]1CN(c2ncnc3[nH]cc(C#N)c23)C1c1nn2ccc(Cl)c2c(=O)n1-c1ccccc1 (some centres unmarked) [Compound 235] | – | 96.2 | 0.012 | 69.3 | 0.211 | >100 | 0.004 | – | 0.071 |
| CC(=O)c1c[nH]c2ncnc(N3C[C@@H](F)C[C@H]3c3nn4ccc(Cl)c4c(=O)n3-c3ccccc3)c12 [Compound 268] | 38.4 | >100 | – | 80.3 | 0.17 | >100 | 0.003 | – | – |
| CC(=O)c1cnc(N)nc1N1C[C@H](C)[C@H]1c1nn2ccc(Cl)c2c(=O)n1-c1ccccc1 [Compound 301] | – | >100 | 0.013 | 79.3 | 0.223 | >100 | 0.004 | – | 0.02 |
| CO/N=C(\C)c1c[nH]c2ncnc(N3CCC[C@H]3c3nn4ccc(Cl)c4c(=O)n3-c3ccccc3)c12 [Compound 308] | 9.7 | 96.7 | – | 56.4 | – | 99.7 | – | – | – |
| O=c1c2c(Cl)ccn2nc([C@@H]2CCCN2c2ncnc3[nH]cnc23)n1-c1ccccn1 [Compound 311] | 10.1 | >100 | 0.034 | 79.4 | 0.379 | >100 | – | – | – |
| C[S@+]([O-])c1c[nH]c2ncnc(N3CCC[C@H]3c3nn4ccc(Cl)c4c(=O)n3-c3ccccc3)c12 [Compound 382, 5-chloro-2-((S)-1-(5-((S)-methylsulfinyl)-7H-pyrrolo[2,3-d]pyrimidin-4-yl)pyrrolidin-2-yl)-3-phenylpyrrolo[2,1-f][1,2,4]triazin-4(3H)-one] | 14.1 | >100 | 0.033 | 84.4 | 0.088 | 99.0 | 0.001 | – | – |
| C[S@@+]([O-])c1c[nH]c2ncnc(N3CCC[C@H]3c3nn4ccc(Cl)c4c(=O)n3-c3ccccc3)c12 [Compound 383, 5-chloro-2-((S)-1-(5-((R)-methylsulfinyl)-7H-pyrrolo[2,3-d]pyrimidin-4-yl)pyrrolidin-2-yl)-3-phenylpyrrolo[2,1-f][1,2,4]triazin-4(3H)-one] | 14.7 | >100 | 0.017 | 68.7 | 0.741 | 98.8 | 0.004 | – | – |
